Source: patent US6417190B1, “Tricyclic nitrogen heterocycles as PDE IV inhibitors” (Boehringer Ingelheim Pharma KG, priority 1998, dated 2002)

tested on: human PDE IV; assay: PDE IV inhibition, method of Torphy et al. (1992), [3H]cAMP, enzyme purified from human monocytes (U937-cells); format: biochemical; settings: 1 μCi/ml [3H] cAMP, 40 mM Tris-HCl (pH 7.8), 3 mM MgCl2, incubation 30 min at 30° C.
Excerpt: Table 1 contains the pharmacological data obtained for the compounds of general formula (I). The data was obtained by the method of Torphy et al. (1992), J. Pharmacol. Exp. Ther. 263:1195.

Row | IC50 | SMILES
1 | 0.12 µM | CCCc1nc2c([nH]1)c(=O)n(CCC)c1nc(C3CCCC3)nn21 [No. 19]
2 | 0.081 µM | CCCCc1nc2n(CCC)c(=O)c3[nH]c(C4CCCC4)nc3n2n1 [No. 14]
3 | 0.11 µM | CCn1c(=O)c2[nH]c(C3CCCC3)nc2n2nc(COc3ccccc3)nc12 [No. 15]
4 | 0.12 µM | CCc1nc2c([nH]1)c(=O)n(CC)c1nc(CC3CCCCC3)nn21 [No. 18]
5 | 0.057 µM | CCn1c(=O)c2[nH]c(C3CCCC3)nc2n2nc(Cc3ccccc3)nc12 [No. 9]
6 | 0.074 µM | CCCn1c(=O)c2[nH]c(C3CCCC3)nc2n2nc(Cc3ccccc3)nc12 [No. 12]
7 | 0.053 µM | CCn1c(=O)c2[nH]c(C(C)(C)C)nc2n2nc(Cc3ccccc3)nc12 [No. 7]
8 | 0.11 µM | CCn1c(=O)c2[nH]c(C3CCCC3)nc2n2nc(CC3CCCCC3)nc12 [No. 17]
9 | 0.046 µM | CCn1c(=O)c2[nH]c(C3CCCC3)nc2n2nc(CCc3ccccc3)nc12 [No. 4]
10 | 0.079 µM | CCCn1c(=O)c2[nH]c(C3CCCC3)nc2n2nc(C(C)(C)C)nc12 [No. 13]
11 | 0.069 µM | CCn1c(=O)c2[nH]c(C3CCCC3)nc2n2nc(Cn3cccc3)nc12 [No. 11]
12 | 0.039 µM | CCCn1c(=O)c2[nH]c(C3CCCC3)nc2n2nc(CC)nc12 [No. 2]
13 | 0.018 µM | CCCn1c(=O)c2[nH]c(C3CCCC3)nc2n2nc(C(C)C)nc12 [No. 1]
14 | 0.11 µM | CCCn1c(=O)c2[nH]c(N3CCOCC3)nc2n2nc(Cc3ccccc3)nc12 [No. 16]
15 | 0.042 µM | CCn1c(=O)c2[nH]c(C(C)(C)C)nc2n2nc(Cc3ccc(OC)cc3)nc12 [No. 3]
16 | 0.069 µM | CCCc1nc2c([nH]1)c(=O)n(CCC)c1nc(Cc3ccccc3)nn21 [No. 10]
17 | 0.049 µM | CCCc1nc2n(CCC)c(=O)c3[nH]c(C4CCCC4)nc3n2n1 [No. 6]
18 | 0.055 µM | CCCc1nc2n(CCC)c(=O)c3[nH]c(-c4ccccc4)nc3n2n1 [No. 8]
